Common to all, as to assay: Post-emergent Test III, herbicidal activity in wheat and barley
What all share (type): in vivo

The subject of experiment [1] is STEME: common chickweed (Stellaria media). Particulars: for pest or weed control at 35 g/ha / pest or weed control at 70 g/ha / pest or weed control at 140 g/ha: Stellaria media, post-emergence, 504 h, read-out: Visual Growth Reduction (%) 21 Days After Application STEME; for pest or weed control at 35 g/ha: 35 g ai/ha; for pest or weed control at 70 g/ha: 70 g ai/ha; for pest or weed control at 140 g/ha: 140 g ai/ha; for GR50 STEME / GR80 STEME: probit analysis, 21 days after application; for GR50 STEME: dose for growth reduction of 50 percent; for GR80 STEME: dose for growth reduction of 80 percent. In outline:
(§1)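 Plants at the second to third true-leaf stage, grown in a greenhouse at about 18/17 °C with a 14 h photoperiod, were sprayed post-emergence at 187 L/ha with the high rate and ½× to 1/16× serial dilutions in an acetone/DMSO/crop-oil/surfactant carrier. Injury was rated visually at 21 d on a 0–100% scale, and GR20–GR90 were derived by probit analysis.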

The test system of experiment [2] is PHAMI: lesser canary grass (Phalaris minor). The following applies: for pest or weed control at 35 g/ha / pest or weed control at 70 g/ha / pest or weed control at 140 g/ha: Phalaris minor, post-emergence, 504 h, read-out: Visual Growth Reduction (%) 21 Days After Application PHAMI; for pest or weed control at 35 g/ha: 35 g ai/ha; for pest or weed control at 70 g/ha: 70 g ai/ha; for pest or weed control at 140 g/ha: 140 g ai/ha; for GR50 PHAMI / GR80 PHAMI: probit analysis, 21 days after application; for GR50 PHAMI: dose for growth reduction of 50 percent; for GR80 PHAMI: dose for growth reduction of 80 percent. A digest of the protocol: as §1

Experiment [3] deals with VIOSS: wild pansy (Viola tricolor), field violet (Viola arvensis). Particulars: 21 days after application; for pest or weed control at 35 g/ha / pest or weed control at 70 g/ha: Viola tricolor, post-emergence, 504 h, read-out: Visual Gorowth Reduction (%) 21 days After Application VIOSS; for pest or weed control at 35 g/ha: 35 g ai/ha; for pest or weed control at 70 g/ha: 70 g ai/ha; for GR50 VIOSS / GR80 VIOSS: probit analysis; for GR50 VIOSS: dose for 50 percent growth reduction; for GR80 VIOSS: dose for 80 percent growth reduction. In outline: as §1

Experiment [4] relates to SASKR: Russian thistle (Salsola iberica). Particulars: 21 days after application; for pest or weed control at 35 g/ha / pest or weed control at 70 g/ha: Salsola tragus, post-emergence, 504 h, read-out: Visual Gorowth Reduction (%) 21 days After Application SASKR; for pest or weed control at 35 g/ha: 35 g ai/ha; for pest or weed control at 70 g/ha: 70 g ai/ha; for GR50 SASKR / GR80 SASKR: probit analysis; for GR50 SASKR: dose for 50 percent growth reduction; for GR80 SASKR: dose for 80 percent growth reduction. A digest of the protocol:
as §1

`COC(=O)c1nc(-c2ccc(Br)c(F)c2F)cc(N)c1Cl` [Compound 114, methyl 4-amino-6-(4-bromo-2,3-difluorophenyl)-3-chloropicolinate]: in experiment [1], the pest or weed control at 35 g/ha was 0 to 29%, the pest or weed control at 70 g/ha lay in the range of 0 to 29%, the pest or weed control at 140 g/ha was in the range of 0 to 29% and the “GR50 STEME” value is recorded as greater than 140 g ai/ha. Further, in experiment [1], the “GR80 STEME” value was greater than 140 g ai/ha. Moreover, in experiment [2], the pest or weed control at 35 g/ha is 0 to 29%, the pest or weed control at 70 g/ha is 0 to 29%, the pest or weed control at 140 g/ha was 0 to 29% and the “GR50 PHAMI” value is reported as greater than 140 g ai/ha. The “GR80 PHAMI” value in experiment [2] was greater than 140 g ai/ha.
With `COC(=O)c1nc(-c2ccc(I)cc2)c(F)c(N)c1Cl` [Compound 118, Methyl 4-amino-6-(4-iodophenyl)-3-chloro-5-fluoropicolinate], in experiment [1], the pest or weed control at 35 g/ha fell in the range of 30 to 44%, the pest or weed control at 70 g/ha lay in the range of 30 to 44%, the pest or weed control at 140 g/ha fell in the range of 30 to 44% and the “GR50 STEME” value is 1 g ai/ha. Also, the “GR80 STEME” value in experiment [1] is recorded as 1 g ai/ha. In experiment [2], the pest or weed control at 35 g/ha fell in the range of 0 to 29%, the pest or weed control at 70 g/ha fell in the range of 60 to 74%, the pest or weed control at 140 g/ha lay within 75 to 84% and the “GR50 PHAMI” value was 68 g ai/ha. The “GR80 PHAMI” value in experiment [2] amounted to 126 g ai/ha.
Consider `Nc1c(F)c(-c2cc(F)c(I)cc2F)nc(C(=O)O)c1Cl` [Compound 69], for which, in experiment [3], the pest or weed control at 35 g/ha was 85 to 94%, the pest or weed control at 70 g/ha was 95 to 100%, the “GR50 VIOSS” value is 3 g ai/ha and the “GR80 VIOSS” value is on record as 8 g ai/ha. In experiment [4], the pest or weed control at 35 g/ha fell in the range of 85 to 94%, the pest or weed control at 70 g/ha was 85 to 94%, the “GR50 SASKR” value was determined as 7 g ai/ha and the “GR80 SASKR” value worked out at 29 g ai/ha.
Consider `N#Cc1ccc(-c2nc(C(=O)O)c(Cl)c(N)c2F)cc1` [Compound 39], for which, in experiment [1], the pest or weed control at 35 g/ha fell in the range of 0 to 29%, the pest or weed control at 70 g/ha is 30 to 44%, the pest or weed control at 140 g/ha lay in the range of 45 to 59% and the “GR50 STEME” value is listed as 111 g ai/ha. The “GR80 STEME” value in experiment [1] is greater than 140 g ai/ha. In experiment [2], the pest or weed control at 35 g/ha was 0 to 29%, the pest or weed control at 70 g/ha is 30 to 44%, the pest or weed control at 140 g/ha was 45 to 59% and the “GR50 PHAMI” value amounted to 118 g ai/ha. The “GR80 PHAMI” value in experiment [2] is listed as greater than 140 g ai/ha.
As to `Nc1c(F)c(-c2ccc(OC(F)F)cc2)nc(C(=O)O)c1Cl` [Compound 143], in experiment [1], the pest or weed control at 35 g/ha fell in the range of 0 to 29%, the pest or weed control at 70 g/ha lay in the range of 0 to 29%, the pest or weed control at 140 g/ha is 0 to 29% and the “GR50 STEME” value is greater than 140 g ai/ha. Also, in experiment [1], the “GR80 STEME” value was greater than 140 g ai/ha. In experiment [2], the pest or weed control at 35 g/ha was in the range of 0 to 29%, the pest or weed control at 70 g/ha lay within 30 to 44%, the pest or weed control at 140 g/ha was in the range of 60 to 74% and the “GR50 PHAMI” value came out at 112 g ai/ha. The “GR80 PHAMI” value in experiment [2] is listed as greater than 140 g ai/ha.
`Nc1c(F)c(-c2ccc(Br)cc2)nc(C(=O)O)c1Cl` [Compound 20]: in experiment [1], the pest or weed control at 35 g/ha is 75 to 84%, the pest or weed control at 70 g/ha fell in the range of 95 to 100%, the pest or weed control at 140 g/ha fell in the range of 95 to 100% and the “GR50 STEME” value worked out at 8 g ai/ha. The “GR80 STEME” value in experiment [1] stood at 25 g ai/ha. In experiment [2], the pest or weed control at 35 g/ha was 85 to 94%, the pest or weed control at 70 g/ha fell in the range of 85 to 94%, the pest or weed control at 140 g/ha is 85 to 94% and the “GR50 PHAMI” value is 5 g ai/ha. Besides, the “GR80 PHAMI” value in experiment [2] was 25 g ai/ha.
As to `COC(=O)c1nc(-c2ccc(OC(F)F)cc2)c(F)c(N)c1Cl` [Compound 85], in experiment [1], the pest or weed control at 35 g/ha fell in the range of 0 to 29%, the pest or weed control at 70 g/ha was 0 to 29%, the pest or weed control at 140 g/ha was 0 to 29% and the “GR50 STEME” value came out at 57 g ai/ha. For the same compound, the “GR80 STEME” value in experiment [1] came to 123 g ai/ha. For the same compound, in experiment [2], the pest or weed control at 35 g/ha was 0 to 29%, the pest or weed control at 70 g/ha is 0 to 29%, the pest or weed control at 140 g/ha is 0 to 29% and the “GR50 PHAMI” value was greater than 140 g ai/ha. Also, in experiment [2], the “GR80 PHAMI” value is given as greater than 140 g ai/ha.
Regarding `COC(=O)c1nc(-c2ccc(C#N)cc2)c(F)c(N)c1Cl` [Compound 142], in experiment [1], the pest or weed control at 35 g/ha lay within 0 to 29%, the pest or weed control at 70 g/ha fell in the range of 0 to 29%, the pest or weed control at 140 g/ha fell in the range of 0 to 29% and the “GR50 STEME” value is given as greater than 140 g ai/ha. For the same compound, the “GR80 STEME” value in experiment [1] is recorded as greater than 140 g ai/ha. Moreover, in experiment [2], the pest or weed control at 35 g/ha lay in the range of 0 to 29%, the pest or weed control at 70 g/ha was 0 to 29%, the pest or weed control at 140 g/ha was 0 to 29% and the “GR50 PHAMI” value is given as greater than 140 g ai/ha. In addition, in experiment [2], the “GR80 PHAMI” value is recorded as greater than 140 g ai/ha.
In the case of `Nc1c(F)c(-c2ccc(I)cc2)nc(C(=O)O)c1Cl` [Compound 45, 4-amino-3-chloro-5-fluoro-6-(4-iodophenyl)picolinic acid], in experiment [1], the pest or weed control at 35 g/ha lay in the range of 30 to 44%, the pest or weed control at 70 g/ha lay within 30 to 44%, the pest or weed control at 140 g/ha was in the range of 30 to 44% and the “GR50 STEME” value came out at 75 g ai/ha. The “GR80 STEME” value in experiment [1] was greater than 140 g ai/ha. Further, in experiment [2], the pest or weed control at 35 g/ha fell in the range of 75 to 84%, the pest or weed control at 70 g/ha was in the range of 85 to 94%, the pest or weed control at 140 g/ha is 95 to 100% and the “GR50 PHAMI” value worked out at 15 g ai/ha. Besides, the “GR80 PHAMI” value in experiment [2] amounted to 32 g ai/ha.
As to `C=Cc1c(C(=O)O)nc(-c2ccc(C(F)(F)F)c(F)c2)c(F)c1N` [Compound 86], in experiment [3], the pest or weed control at 35 g/ha lay within 60 to 74%, the pest or weed control at 70 g/ha was 60 to 74%, the “GR50 VIOSS” value amounted to 21 g ai/ha and the “GR80 VIOSS” value is 77 g ai/ha. Moreover, in experiment [4], the pest or weed control at 35 g/ha lay within 60 to 74%, the pest or weed control at 70 g/ha was in the range of 75 to 84%, the “GR50 SASKR” value is reported as 18 g ai/ha and the “GR80 SASKR” value is given as 66 g ai/ha.
With `COC(=O)c1nc(-c2ccc(Br)cc2)c(F)c(N)c1Cl` [Compound 138, Methyl 4-amino-6-(4-bromophenyl)-3-chloro-5-fluoropicolinate], in experiment [1], the pest or weed control at 35 g/ha fell in the range of 30 to 44%, the pest or weed control at 70 g/ha is 30 to 44%, the pest or weed control at 140 g/ha was in the range of 45 to 59% and the “GR50 STEME” value came to 125 g ai/ha. Moreover, the “GR80 STEME” value in experiment [1] is recorded as greater than 140 g ai/ha. Further, in experiment [2], the pest or weed control at 35 g/ha lay in the range of 45 to 59%, the pest or weed control at 70 g/ha is 75 to 84%, the pest or weed control at 140 g/ha was in the range of 85 to 94% and the “GR50 PHAMI” value turned out to be 31 g ai/ha. Moreover, the “GR80 PHAMI” value in experiment [2] came to 78 g ai/ha.
